≈ marks a conversion by molar mass, not a printed value. Residues, ends and D or L forms follow the SMILES beside them.
Legend:
[1] = system: Acinetobacter baumanii; assay type: cell-based
Method: (§1) Gram negative bacterial strains were cultivated in Luria-Bertani (LB) broth (Difco) and gram positive bacteria strains were grown in a rich medium, brain heart infusion (BHI) broth (Difco, Sparks, MD) at 37° C. Whenever required, growth media were supplemented with appropriate antibiotic to the medium or plates. Escherichia coli DH5α was used for cloning and plasmid amplification. […] Bacterial CFU counting was done on blood agar plates (BD Biosciences). Species identification and antibiograms for all clinical isolates were performed using MALDI-TOF and VITEK® 2 automated system (bioMérieux).
(§2) The MICs of active peptides were determined via the Broth microdilution assay according to the EUCAST guideline, which were performed in 96-well polystyrene flat-bottom microtiter plates (BD Biosciences). Briefly, a single colony was inoculated into 5 mL LB medium and grown to the end-exponential growth phase in a shaking incubator at 37° C. Cultures were subsequently diluted to an OD600 of 0.002 ([…]) in fresh LB medium. 100 μL of LB medium with different concentration of peptides ranging from 100 μg/mL to 1 μg/mL were serially diluted to the sterile 96-well plate (at least 3 wells in each plate). Afterward, 100 μL of the diluted bacteria were pipetted into 96-well plates containing different concentration of peptides. In each plate, the grown bacteria with maximum concentration of carrier and medium were considered as positive and negative controls, respectively. Thereafter, 96-well plates was statically incubated overnight at 37° C. to allow bacterial growth. A multipurpose UV/VIS plate reader at OD590 nm, 1 s shaking measured the absorbance of the growth bacteria using a Perkin Elmer spectrophotometer (1420 Multilabel Counter Victor 3).

[2] = system: Enterobacter cloacae LMG2783T; assay type: cell-based
Method: as §1, §2

[3] = system: Acinetobacter radioresistens; assay type: cell-based
Method: as §1, §2

[4] = system: Staphylococcus aureus MRSA326; assay type: cell-based
Method: as §1, §2

[5] = system: Staphylococcus epidermidis 12228; assay type: cell-based
Method: as §1, §2

[6] = system: Proteus mirabilis; assay type: cell-based
Method: as §1, §2

[7] = system: Neisseria; assay type: cell-based
Method: as §1, §2

[8] = system: Klebsiella pneumoniae (ATCC 1388); assay type: cell-based
Method: as §1, §2

[9] = system: Pseudomonas aeruginosa; assay type: cell-based
Method: as §1, §2

[10] = In vivo toxicity test; design: species or system Swiss mice
Method: The procedures used in the assays were approved by the local Animal Ethical Committee and conform to international standards of animal welfare (Approval P067/2015 of the Ethical Committee of KU Leuven). […] Briefly, 5-6 week-old Swiss females were divided into […] (6 animals/group) and administered 30 mg/kg of Colpeptin1 (group A) or vehicle (physiological water pH 7.5) (group b) once a day for 18 days via IP injection. During the treatment period the clinical, physiological and behavioral parameters including body weight, food and water consumption, body condition score, home cage activity and locomotion were constantly monitored and recorded.
Three days after the last administration animals were anesthetized and blood was collected using a standard retro-orbital puncture from each animal. Next, the mice sacrificed and underwent complete necropsy with gross examination and organ weights. The organs (Heart, Liver, Spleen, kidney, bone marrow, Brain, Lung) were sampled and immersion fixed in 4% paraformaldehyde. Formalin-fixed tissues after dehydration were routinely processed and embedded in paraffin blocks for histopathological examination. 5 μm thick sections taken from these blocks (Thermo Scientific Microm HM355S microtome) were then stained with Hematoxylin and Eosin (Leica ST5010 Autostainer XL) and evaluated under a Leica DM 2500 light microscope by a board-certified veterinary pathologist. Hematology examination was performed using an automate high-resolution flow cytometer, Abbott Cell-Dyn 3700.

[11] = ELISA on immobilised colpeptin1 with serum of treated animals; assay type: in vivo; details: mice treated for 18 days with 30 mg/kg
Method: FIG. 2: Cross seeding and in vivo activity. (A) Fluorescence microscopy image of HeLa cells mixed with E. coli O157 and treated with FITC-labelled Colpeptin1 (green channel). Blue channel is DAPI, red is CellMask Deep Red plasma membrane dye. (D) Inhibitor effect of Colpeptin1 on bacterial growth in the presence of human blood serum (average and s.d. of 3 replicates). (E) ELISA on immobilised colpeptin1 using blood serum of animals treated for 18 days with 30 mg/kg colpeptin1 (3 replicates from 3 mice). […] See materials and methods for details.
Given these positive results, we then established the tolerance of the Swiss mice to the peptide by performing a dose escalation experiment. […] The parameters observed included body weight, food and water consumption, home cage activity and locomotion. […] Based on these observations, we tested the antibacterial efficacy of the colpeptin1 in a mouse bladder infection model. In this model, an inoculum of 50 μL of a 10^8 CFU/mL suspension of E. coli O157:H7 was delivered via the urethra to the bladder of healthy Swiss mice. 1 h post-infection, we administered a single injection of colpeptin1 at 10 mg/kg, either via the urethra (n=15) or intraperitoneally (n=15). 24 h after treatment, the animals were sacrificed and the bacterial titer in kidney, colon, bladder and ureter was determined by plating the macerated tissue (FIG. 2F-l).

[12] = system: E coli ATCC 25922; assay type: cell-based, Escherichia coli
Method: as §1
as §2, with “Afterward, 100 μL of the diluted bacteria were pipetted into 96-well plates containing different concentration of peptides. In each plate, the grown bacteria with maximum concentration of carrier and medium were considered as positive and negative controls, respectively. Thereafter, 96-well plates was statically incubated overnight at 37° C. to allow bacterial growth.” left out

[13] = mice, 30 mg/kg, 18 consecutive days injection
[14] = mice, 18 consecutive days of injection, Mean ± SD

Structure (SMILES): CC(C)C[C@H](NC(=O)CNC(=O)[C@H](CCCNC(=N)N)NC(=O)[C@@H]1CCCN1C(=O)[C@H](CCCNC(=N)N)NC(=O)[C@H](CCCNC(=N)N)NC(=O)[C@@H](NC(=O)[C@H](CC(C)C)NC(=O)[C@H](C)NC(=O)[C@H](CC(C)C)NC(=O)CNC(=O)[C@H](CC(C)C)NC(=O)CNC(=O)[C@@H](N)CCCNC(=N)N)C(C)C)C(=O)NCC(=O)N[C@@H](CC(C)C)C(=O)N[C@@H](C)C(=O)N[C@@H](CC(C)C)C(=O)N[C@H](C(=O)N[C@@H](CCCNC(=N)N)C(=O)N[C@@H](CCCNC(=N)N)C(=O)O)C(C)C [Peptide P2] (H-RGLGLALVRRPRGLGLALVRR-OH)
- MIC [1]: 6 µg/mL (≈ 2.61 µM)
- MIC [2]: 50 µg/mL (≈ 21.7 µM)
- MIC [3]: 5 µg/mL (≈ 2.17 µM)
- MIC [4]: 200 µg/mL (≈ 87 µM)
- MIC [5]: 50 µg/mL (≈ 21.7 µM)
- MIC [6]: 50 µg/mL (≈ 21.7 µM)
- MIC [7]: 50 µg/mL (≈ 21.7 µM)
- MIC [8]: 50 µg/mL (≈ 21.7 µM)
- MIC [9]: 200 µg/mL (≈ 87 µM)
- adverse effects on repeated dosing ([10]; 6 mice, daily injections at the maximum tolerated dose for 18 days): without any apparent adverse effects
- acute adverse effects, dose escalation ([10]; Swiss mice, intraperitoneal administration of up to 30 mg/kg): no acute adverse effects
- survey of the major organs ([10]; after 18 days dosing and 3 days recovery): no major morphological signs of toxicity
- Organs weights: Brain [10, 13]: 0.56 ± 0.02 gr
- Organs weights: Heart [10, 13]: 0.20 ± 0.02 gr
- Organs weights: Kidneys [10, 13]: 0.58 ± 0.01 gr
- Organs weights: Liver [10, 13]: 1.90 ± 0.11 gr
- Organs weights: Spleen [10, 13]: 0.12 ± 0.01 gr
- BASO, Basophil absolute count [10, 14]: 0.24 ± 0.02
- EOS, Eosinophil absolute count [10, 14]: 0.14 ± 0.06
- HCT, Hematocrit [10, 14]: 98.87 ± 3.7
- HGB, Hemoglobin concentration [10, 14]: 17.8 ± 0.45
- LYM, Lymphocyte absolute count [10, 14]: 5.32 ± 0.52
- MCH, Mean Corpuscular Hemoglobin [10, 14]: 48.2 ± 0.34
- MCHC, Mean Corpuscular Hemoglobin Concentration [10, 14]: 53.7 ± 0.42
- MCV, Mean Corpuscular Volume [10, 14]: 273 ± 1.32
- MONO, Monocyte absolute count [10, 14]: 0.15 ± 0.05
- MPV, Mean Platelet Volume [10, 14]: 16.36 ± 0.2
- NEU, Neutrophil absolute count [10, 14]: 0.80 ± 0.06
- PCT, Plateletcrit [10, 14]: 0.88 ± 0.05
- PDW, Platelet Distribution Width [10, 14]: 49.9 ± 0.43
- PLT, Platelet or Thrombocyte count [10, 14]: 1595 ± 50.7
- RBC, Red Blood Cell or Erythrocyte count [10, 14]: 10.9 ± 0.46
- WBC, White Blood Cell or Leukocyte count [10, 14]: 6.89 ± 0.42
- MTD ([10]; mouse, in vivo, ip, Swiss mice, intraperitoneal, read-out: safe concentration from escalation experiment): 30 mg/kg
- antibody response towards the peptide (ELISA on serum) [11]: no specific antibody response
- MIC [12]: 12 µg/mL (≈ 5.22 µM)
